In patent US8124641B2, “Aminotetrahydroindazoloacetic acids” (Hoffmann-La Roche Inc., priority 2008, dated 2012):

What follows are molecules tested against T1, human CRTH2 (Homo sapiens, UniProt Q9Y5Y4) (assay: Human CRTH2 Receptor Binding Assay (whole cell, [3H]ramatroban competition)). Settings: CHO-K1 cells stably expressing human CRTH2 and G-alpha16; 20 nM [3H]ramatroban; 1 hour, room temperature.
T1 construct: expressed in transfected cells
T1 sequence (Q9Y5Y4 1-395): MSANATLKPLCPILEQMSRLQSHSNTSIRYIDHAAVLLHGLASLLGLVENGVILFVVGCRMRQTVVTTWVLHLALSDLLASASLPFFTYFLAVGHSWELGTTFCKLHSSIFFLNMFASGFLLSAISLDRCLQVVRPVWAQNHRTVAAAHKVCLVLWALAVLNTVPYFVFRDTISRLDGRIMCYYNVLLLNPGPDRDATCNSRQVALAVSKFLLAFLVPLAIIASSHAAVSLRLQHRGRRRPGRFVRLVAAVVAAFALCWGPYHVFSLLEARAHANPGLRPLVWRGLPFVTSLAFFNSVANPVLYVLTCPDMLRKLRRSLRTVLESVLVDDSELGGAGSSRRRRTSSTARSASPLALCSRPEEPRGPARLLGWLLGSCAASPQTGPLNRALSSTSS
Excerpt: A whole cell receptor binding assay using [^3H]ramatroban as the competing radioactive ligand was employed to evaluate the compound binding activity to human CRTH2. The radioactive ligand [^3H]ramatroban was synthesized according to Sugimoto et. al. (Eur. J. Pharmacol. 524, 30-37, 2005) to a specific activity of 42 Ci/mmol.
A cell line stably expressing human CRTH2 was established by transfecting CHO-K1 cells with two mammalian expression vectors that harbored human CRTH2 and G-alpha16 cDNAs, respectively, using FuGene® 6 transfection reagent (from Roche). Stable clones expressing CRTH2 were selected by staining each clone with BM16 (BD Pharmingen™ from BD Biosciences, a division of Becton, Dickinson and Company), which is a rat monoclonal antibody to human CRTH2. The cells were maintained as monolayer cultures in Ham's F-12 medium containing 10% fetal bovine serum, 100 units/mL penicillin, 100 μg/mL streptomycin, 2 mM glutamine, 0.5 mg/mL G418 (geneticin) for CRTH2, and 0.2 mg/mL hygromycin-B (for G-alpha 16). For whole cell receptor binding assay, the monolayer cells were rinsed once with PBS (phosphate buffered saline), dissociated using ethylenediaminetetraacetate (Versene™ EDTA from Lonza Inc.), and suspended in PBS containing 10 mM MgCl2 and 0.06% BSA (bovine serum albumin) at 1.5×10^6 cells/mL.
The binding reactions (0.2 mL) were performed in 96-well plates at room temperature in PBS containing 1.5×10^5 cells, 10 mM MgCl2, 0.06% BSA, 20 nM [^3H]ramatroban, and test compound at various concentrations. After 1 hour of binding reactions, the cells were harvested on GF™/B filter microplates (microtiter plates with embedded glass fiber from PerkinElmer, Inc.) and washed 5 times with PBS using a Filtermate™ Harvester (a cell harvester that harvests and washes cells from microplates from PerkinElmer, Inc.). The radioactivities bound to the cells were determined using a microplate scintillation counter (TopCount® NXT, from PerkinElmer, Inc.) after adding 50 μL of Microscint™ 20 scintillation fluid (from PerkinElmer, Inc.) to each well of the filter plates. The radioactivity from non-specific binding was determined by replacing compound with 10 μM of 15(R)-15-methyl PGD2 (from Cayman Chemical Company) in the reaction mixtures. The radioactivity bound to the cells in the absence of compound (total binding) was determined by replacing compound with 0.25% of DMSO (dimethyl sulfoxide) in the reaction mixture. Specific binding data were obtained by subtracting the radioactivity of non-specific binding from each binding data.
The IC50 value is defined as the concentration of the tested compound that is required for 50% inhibition of total specific binding. In order to calculate the IC50 value, the percent inhibition data were determined for 7 concentrations for each compound. The percent inhibition for a compound at each concentration was calculated according to the following formula, [1−(specific binding in the presence of compound)/(total specific binding)]×100. The IC50 value was then obtained by fitting the percent inhibition data to a sigmoidal dose-response (4 parameter logistic) model in the XLfit® software Excel add-in program [from ID Business Solutions Ltd., model 205, where F(x)=(A+(B−A)/(1+((C/x)^D)))].

Row | IC50 [nM] | Structure (SMILES)
1 | 370 | CCOc1ncc(S(=O)(=O)NC2CCCc3c2cnn3CC(=O)O)cc1Br (stereo not shown) [Example 3-2a, [4-(5-Bromo-6-ethoxy-pyridine-3-sulfonylamino)-4,5,6,7-tetrahydro-indazol-1-yl]-acetic acid]
2 | 37.2 | CC(C)Oc1ncc(S(=O)(=O)N(C)[C@@H]2CCCc3c2cnn3CC(=O)O)cc1Br [Example 4-3a, {(R)-4-[(5-Bromo-6-isopropoxy-pyridine-3-sulfonyl)-methyl-amino]-4,5,6,7-tetrahydro-indazol-1-yl}-acetic acid]
3 | 53.9 | CN([C@@H]1CCCc2c1cnn2CC(=O)O)S(=O)(=O)c1cnc(OC2CCOCC2)c(Br)c1 [Example 4-4a, ((R)-4-{[5-Bromo-6-(tetrahydro-pyran-4-yloxy)-pyridine-3-sulfonyl]-methyl-amino}-4,5,6,7-tetrahydro-indazol-1-yl)-acetic acid]
4 | 2.6 | CCS(=O)(=O)c1cc(C(F)(F)F)cc(S(=O)(=O)N[C@@H]2CCCc3c2cnn3CC(=O)O)c1 [Example 7-1a, [(R)-4-(3-Ethanesulfonyl-5-trifluoromethyl-benzenesulfonylamino)-4,5,6,7-tetrahydro-indazol-1-yl]-acetic acid]
5 | 2.9 | O=C(O)Cn1ncc2c1CCC[C@H]2NS(=O)(=O)c1cc(C(F)(F)F)cc(S(=O)(=O)C2CCCC2)c1 [Example 7-2a, [(R)-4-(3-Cyclopentane-sulfonyl-5-trifluoromethyl-benzenesulfonylamino)-4,5,6,7-tetrahydro-indazol-1-yl]-acetic acid]
6 | 12.6 | CN([C@@H]1CCCc2c1cnn2CC(=O)O)S(=O)(=O)c1cc(SC2CCCC2)cc(C(F)(F)F)c1 [Example 9-1a, {(R)-4-[(3-Cyclopentylsulfanyl-5-trifluoromethyl-benzenesulfonyl)-methyl-amino]-4,5,6,7-tetrahydro-indazol-1-yl}-acetic acid]

The remaining lines, values behind:

Row | Structure (SMILES) | IC50 [nM]
7 | O=C(O)Cn1ncc2c1CCCC2NS(=O)(=O)c1cnc(OC2CCCC2)c(Br)c1 (stereo not shown) [Example 3-3a, [4-(5-Bromo-6-cyclopentyloxy-pyridine-3-sulfonylamino)-4,5,6,7-tetrahydro-indazol-1-yl]-acetic acid] | 10.3
8 | CC(C)Oc1cc(C(F)(F)F)cc(S(=O)(=O)NC2CCCc3c2cnn3CC(=O)O)c1 (stereo not shown) [Example 3-4a, [4-(3-Isopropoxy-5-trifluoromethyl-benzenesulfonylamino)-4,5,6,7-tetrahydro-indazol-1-yl]-acetic acid] | 194
9 | CN([C@@H]1CCCc2c1cnn2CC(=O)O)S(=O)(=O)c1ccc(OC2CCCC2)c(Cl)c1 [Example 4-1a, {(R)-4-[(3-Chloro-4-cyclopentyloxy-benzenesulfonyl)-methyl-amino]-1-4,5,6,7-tetrahydro-indazol-1-yl}-acetic acid] | 99.2
10 | CN([C@@H]1CCCc2c1cnn2CC(=O)O)S(=O)(=O)c1cnc(OC2CCC2)c(Br)c1 [Example 4-2a, {(R)-4-[(5-Bromo-6-cyclobutoxy-pyridine-3-sulfonyl)-methyl-amino]-4,5,6,7-tetrahydro-indazol-1-yl}-acetic acid] | 39.1
11 | CS(=O)(=O)c1cc(C(F)(F)F)cc(S(=O)(=O)N[C@@H]2CCCc3c2cnn3CC(=O)O)c1 [Example 5-1a, [(R)-4-(3-Methanesulfonyl-5-trifluoromethyl-benzenesulfonylamino)-4,5,6,7-tetra-hydro-indazol-1-yl]-acetic acid] | 3.1
12 | CN([C@@H]1CCCc2c1cnn2CC(=O)O)S(=O)(=O)c1cc(C(F)(F)F)cc(S(C)(=O)=O)c1 [Example 6-1a, {(R)-4-[(3-Methanesulfonyl-5-trifluoromethyl-benzenesulfonyl)-methyl-amino]-4,5,6,7-tetrahydro-indazol-1-yl}-acetic acid] | 2.5
13 | CC[S+]([O-])c1cc(C(F)(F)F)cc(S(=O)(=O)N(C)[C@@H]2CCCc3c2cnn3CC(=O)O)c1 (stereo partly drawn) [Example 8-1a, {(R)-4-[(3-Ethanesulfinyl-5-trifluoromethyl-benzenesulfonyl)-methyl-amino]-4,5,6,7-tetrahydro-indazol-1-yl}-acetic acid] | 3.3
